Experimental data taken from patent US8865714B2, “Piperazine compound capable of inhibiting prostaglandin D synthase” (Taiho Pharmaceutical Co., Ltd., priority 2009, dated 2014).

Legend:
human H-PGDS = human H-PGDS (Homo sapiens (Human), UniProt O60760); experiment: Hematopoietic prostaglandin D synthase (H-PGDS) inhibiting action; type: biochemical; settings: human H-PGDS, [14C] prostaglandin H2 10 μM
Method: More specifically, the reaction mixture (49 μL) containing 100 mM Tris-HCl (pH 8.0), 1 mM reduced glutathione, 0.1 mg/mL γ-globulin, and human H-PGDS (q.s.), and a compound (final concentration: 0.01-100 μM) was preincubated at 25° C. for 5 minutes. Note that a DMSO solution (final concentration: 1%) was added to the solvent control group. Subsequently, 1 μL of [14C] prostaglandin H2 (final concentration: 10 μM) was added to start the reaction. One minute after the start of the reaction, 250 μL of a reaction stopper solution (diethylether/methanol/1 M citric acid (30/4/1) at a temperature of −20° C. was added to stop the reaction. After the reaction was stopped, 50 μL of the upper layer portion (organic solvent phase) was applied to a TLC plate and developed at −20° C. for 45 minutes (developing solvent: diethylether/methanol/acetic acid (90/2/1)). After drying the TLC plate, the TLC plate was exposed to an imaging plate for 1 to 24 hours, and the radioactivity corresponding to prostaglandin D2 (PGD2) was analyzed using an image analyzer (produced by Fujifilm Corporation).

[1] = test system: PGD2 production in the nasal cavities of guinea pigs with antigen-induced rhinitis; experiment: PGD2 production inhibiting action in the nasal cavities of guinea pigs with antigen-induced rhinitis; type: in vivo; settings: for Rate of decrease in PGD2 concentration in the nasal cavity washing fluid (%): 30 mg/kg orally 1 hour before induction, washing 30 minutes after induction, * = significance level below 0.05 vs control group
Method: (§1) A physiological saline solution containing 1 mg/mL of ovalbumin was subcutaneously injected into the back of 5-week-old male Std:Hartley guinea pigs in an amount of 1 mL/body for active sensitization (initial sensitization). One week and two weeks after initial sensitization, 20 μL of a physiological saline solution containing 10 mg/mL of ovalbumin was instilled into each nasal cavity using a micropipette (sensitization by nasal administration). Three weeks after initial sensitization, 20 μL of a physiological saline solution containing 10 mg/mL of ovalbumin was instilled into each nasal cavity using a micropipette to induce a rhinitis reaction.
The test compound (30 mg/kg) was orally administered 1 hour before induction of a rhinitis reaction. The animals in the control group only received the medium orally.
30 minutes after the induction of a rhinitis reaction, the nasal cavities were washed under pentobarbital sodium anesthesia. A nasal cavity washing liquid (phosphate buffered saline containing 3 mM of EDTA and 10 μM of indomethacin) was flushed using a Peristaltic Pump (Gilson, Inc.) in the direction from the trachea to the upper respiratory tract at the flow rate of 1 mL/min, and the liquid flowing out from the nasal cavities was collected for 1 minute. The collected liquid was centrifuged to separate the supernatant as the nasal cavity washing fluid. The concentration of PGD2 in the nasal cavity washing fluid was determined using an EIA kit (Prostaglandin D2-MOX EIA kit, Cayman Chemical).
The rate of decrease in PGD2 in the nasal cavity washing fluid was calculated by the following formula. […] Rate of decrease in PGD2 in the nasal cavity washing fluid(%)={(PGD2 concentration in the control group−PGD2 concentration in the compound-administered group)÷(PGD2 concentration in the control group−PGD2 concentration in the normal group)}×100 […]

[2] = test system: eosinophil infiltration in guinea pigs with antigen-induced rhinitis; experiment: Eosinophil infiltration inhibiting action in guinea pigs with antigen-induced rhinitis; type: in vivo; settings: 30 mg/kg orally 3 times; washing 6 hours after induction; * = significance level below 0.05 vs control group
Method: as §1
The test compound (30 mg/kg) was orally administered 3 times in total (2 times at sensitization by nasal administrations and 1 time at the induction of a rhinitis reaction), 1 hour before sensitization or induction. The animals in the control group only received the medium orally.
6 hours after the induction of a rhinitis reaction, the nasal cavities were washed under pentobarbital sodium anesthesia. A nasal cavity washing liquid (phosphate buffered saline containing 3 mM of EDTA and 10 μM of indomethacin) was flushed using a Peristaltic Pump (Gilson, Inc.) in the direction from the trachea to the upper respiratory tract at the flow rate of 1 mL/min, and the liquid flowing out from the nasal cavities was collected for 3 minutes. The collected liquid was filtered through a cell strainer (40 μm), and centrifuged at 4° C., 300×g, for 10 minutes. Subsequently, the supernatant was removed by suction. 250 μL of nasal cavity washing liquid was added to the cell pellet to form a suspension. The total number of cells (×10^5 cells) in the cell suspension was determined using an automated blood cell counter (F-820, Sysmex Corporation).
A cell smear was prepared using a centrifugal device to collect cells (Cytospin-3, Shandon). After the cells were stained using a cell stain solution, the number of monocytes, the number of eosinophils, and the number of neutrophils were counted to obtain 300 cells in total by observation under a microscope (200-times magnification). The component ratio of each cell was calculated, and the number of eosinophils in the nasal cavity washing liquid was determined by the following formula. Number of eosinophils([…])=(Eosinophil count÷total count(300))×total number of cells
The rate of decrease in the number of eosinophils in the nasal cavity washing liquid was regarded as the eosinophil infiltration inhibition rate, and determined by the following formula. […] Inhibition rate(%)={(Number of eosinophils in the control group−number of eosinophils in the compound-administered group)÷(number of eosinophils in the control group−number of eosinophils in the normal group)}×100
16 cases were obtained from each group, and the number of eosinophils in the nasal cavity washing fluid was compared between the control group and each compound-administered group. Note that when the significance level was below 0.05, the eosinophil infiltration inhibiting action was considered to be present and indicated by a symbol (*) in the table.

C57BL/10-mdx (mdx) mice = experiment: Forelimb grip strength test in mice; type: in vivo; settings: 30 mg/kg orally once a day for 4 weeks, * = significance level below 0.05 vs control group
Method: 4-week-old male C57BL/10-mdx (mdx) mice were used as a disease group, and 4-week-old male C57BL/10Sn (wild) mice were used as a normal group in the test. A acclimation period was provided after the arrival of the mice. An initial value of each individual was measured at 5 weeks of age, and 10 mice were assigned to each group. From the following day, the test compound (30 mg/kg) was orally administered to the mice once a day consecutively for 4 weeks. The animals in the control group only received the vehicle orally. The forelimb grip strength was measured at 4 weeks after the start of the administration. A value obtained by dividing the average of 5 forelimb grip strength measurement values (kg) determined using a small animal grip strength measurement device (GPM-100M, Melquest) by the body weight (kg) was used as the evaluation index (reference literature: Muscle Nerve., 35, 43-48 (2007)).
9 or more cases were obtained from each group to determine whether expression of forelimb grip strength enhancing action occurred. First, a significant decrease in the value of the control group compared to that of the normal group was confirmed, and then the value of the control group was compared with the value of the compound-administered group. When the significance level was below 0.05, the action was considered to be present and indicated by symbols (#) and (*) in the table.

Chain of human H-PGDS (O60760 whole entry): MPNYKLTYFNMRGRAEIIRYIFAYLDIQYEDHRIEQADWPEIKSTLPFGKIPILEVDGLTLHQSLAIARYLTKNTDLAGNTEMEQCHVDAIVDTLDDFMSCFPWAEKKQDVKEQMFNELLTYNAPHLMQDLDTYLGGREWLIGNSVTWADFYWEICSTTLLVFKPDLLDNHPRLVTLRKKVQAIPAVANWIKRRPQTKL

| Compound | H-PGDS inhibition rate (%) (human H-PGDS; compound at 0.1 μM, relative to the control group) | IC50 (human H-PGDS; read-out: IC50) | Rate of decrease in PGD2 concentration in the nasal cavity washing fluid (%) [1] | Eosinophil infiltration inhibition rate (%) [2] | Forelimb grip strength measurement value/body weight (kg/kg) (C57BL/10-mdx (mdx) mice) | PGD2 production inhibiting action (in words) ([1]; 30 mg/kg orally, summary of Table 2) |
| --- | --- | --- | --- | --- | --- | --- |
| 4-((1-methylpyrrol-2-yl)-carbonyl)-N-(4-(4-morpholin-1-yl-carbonylpiperidin-1-yl)-phenyl)-1-piperazinecarboxamide [Example 3] | 54.2% | 76 nM | 77.5* % | 49.9* % | 4.80 ± 0.09* kg/kg |  |
| O=C(Nc1nc2ccc(Br)cc2s1)N1CCN(C(=O)c2cccc(F)c2)CC1 [Reference Example 13, 4-(3-fluorobenzoyl)-piperazine-1-carboxylic acid-(6-bromobenzothiazol-2-yl)amide] |  |  |  | 34.2% | 4.37 ± 0.15 kg/kg |  |
| Cc1cc2nc(NC(=O)N3CCN(C(=O)c4cccc(F)c4)CC3)sc2cc1C [Reference Example 14, 4-(3-fluorobenzoyl)-piperazine-1-carboxylic acid-(5,6-dimethylbenzothiazol-2-yl)amide] |  |  |  | −25.1% | 4.26 ± 0.22 kg/kg |  |
| Cc1ccc2nc(NC(=O)N3CCN(C(=O)c4cccc(F)c4)CC3)sc2c1 [Reference Example 15, 4-(3-fluorobenzoyl)piperazine-1-carboxylic acid-(6-methylbenzothiazol-2-yl)amide] |  |  |  | −133.3* % | 4.20 ± 0.20 kg/kg |  |
| COc1ccc2nc(NC(=O)N3CCN(C(=O)c4cccc(F)c4)CC3)sc2c1 [Reference Example 16, 4-(3-fluorobenzoyl)piperazine-1-carboxylic acid-(6-methoxybenzothiazol-2-yl)amide] |  |  |  | −108.0* % | 4.29 ± 0.24 kg/kg |  |
| O=C(Nc1nc2ccc(Cl)cc2s1)N1CCN(C(=O)c2cccc(F)c2)CC1 [Reference Example 17, 4-(3-fluorobenzoyl)piperazine-1-carboxylic acid-(6-chlorobenzothiazol-2-yl)amide] |  |  |  | 16.6% | 4.48 ± 0.15 kg/kg |  |
| CON(C)C(=O)c1[nH]c(C)c(-c2nc3ccc(C(=O)c4ccccc4)cc3[nH]2)c1C [Reference Example 19, N-methoxy-N-methyl-4-(5-benzoylbenzimidazol-2-yl)-3,5-dimethylpyrrol-2-carboxamide] |  |  | 77.0* % |  |  | have the action |
